Test results from US10851110B2, “Heterocyclic inhibitors of PTPN11” (priority 2016, dated 2020).

Tested on: BT474 human breast carcinomas cell line
Assay: In Vivo Tumor Models: BT474 xenograft
Settings: BT474 (HER2+) xenograft in CB-17/SCID mice, 100 mg/kg once per day oral gavage, 5 days on/2 days off, 4 weeks
From the text: Xenografts were initiated with BT474 human breast carcinomas cell line and maintained by serial subcutaneous transplantation in CB-17/SCID mice (Charles River). On the day of tumor implant, each test mouse received a 1 mm^3 BT474 fragment implanted subcutaneously in the right flank, and tumor growth was monitored as the average size approached the target range of 100 to 150 mm3. About three weeks post-implantation, the animals were randomized and grouped based on tumor volume and mouse body weight. […] Tumors were measured in two dimensions using calipers, and volume was calculated using the formula: Tumor Volume (mm^3)=w^2×l/2.

Compound: CC1(N)CCN(c2cnc3c(-c4cccc(Cl)c4Cl)n[nH]c3n2)CC1 [Example 1, 1-(3-(2,3-dichlorophenyl)-1H-pyrazolo[3,4-b]pyrazin-6-yl)-4-methylpiperidin-4-amine]
- tolerability (body weight): tolerated dose
- tumor growth: significant suppression of tumor growth
